According to paper doi:10.1101/430959v1, “The chemistry and pharmacology of putative synthetic cannabinoid receptor agonist (SCRA) new psychoactive substances (NPS) 5F-PY-PICA, 5F-PY-PINACA, and their analogues” (biorxiv, 2018):
Read-outs that look alike come from different tables or passages of the source.

Assays:
human CB2 (AtT20-CB2) [1] = target: T1, human CB2 (AtT20-CB2) (Homo sapiens, UniProt P34972); experiment: cell-based; conditions: for Emax: read-out: hCB2 Max (% CP 55,940); for EC50: read-out: hCB2 pEC50 (converted)
T1 construct: gene CNR2; full-length, stably transfected in mouse AtT20 cells
Protocol: (§1) Mouse AtT20 neuroblastoma cells stably transfected with human CB1 or human CB2 have been previously described.[43] and were cultured in Dulbecco’s modified Eagle’s medium (DMEM) containing 10% fetal bovine serum (FBS), 100 U penicillin/streptomycin, and 80 μg/mL hygromycin (InvivoGen, San Diego, CA, USA). Cells were passaged at 80% confluency as required. Cells for assays were grown in 75 cm2 flasks and used at 90% confluence. The day before the assay cells were detached from the flask with trypsin/EDTA (Sigma) and resuspended in 10 mL of Leibovitz’s L-15 media supplemented with 1% FBS, 100 U penicillin/streptomycin and 15 mM glucose. The cells were plated in volume of 90 μL in black walled, clear bottomed 96-well microplates (Corning) which had been precoated with poly-L-lysine (Sigma, Australia). Cells were incubated overnight at 37 °C in ambient CO2. Membrane potential was measured using a FLIPR Membrane Potential Assay kit (blue) from Molecular Devices, as described previously.[46] The dye was reconstituted with assay buffer of composition (mM): NaCl 145, HEPES 22, Na2HPO4 0.338, NaHCO3 4.17, KH2PO4 0.441, MgSO4 0.407, MgCl2 0.493, CaCl2 1.26, glucose 5.56 (pH 7.4, osmolarity 315 ± 5). Prior to the assay, cells were loaded with 90 μL/well of the dye solution without removal of the L-15, giving an initial assay volume of 180 μL/well. Plates were then incubated at 37 °C at ambient CO2 for 45 min. Fluorescence was measured using a FlexStation 3 (Molecular Devices) microplate reader with cells excited at a wavelength of 530 nm and emission measured at 565 nm. Baseline readings were taken every 2 s for at least 2 min, at which time either drug or vehicle was added in a volume of 20 μL. The background fluorescence of cells without dye or dye without cells was negligible. Changes in fluorescence were expressed as a percentage of baseline fluorescence after subtraction of the changes produced by vehicle addition. The final concentration of DMSO was 0.1%. Data were analyzed with PRISM (GraphPad Software Inc., San Diego, CA), using four-parameter nonlinear regression to fit concentration-response curves. In all plates, a maximally effective concentration of CP 55,940 was added to allow for normalization between assays.

HA-hCB1 = target: T2, HA-hCB1 (Homo sapiens, UniProt P21554); experiment: [3H]SR141716A competition, membranes; format: binding
T2 construct: gene CNR1

HA-hCB2 [2] = target: T3, HA-hCB2 (Homo sapiens, UniProt P34972); experiment: [3H]CP55, […] competition, membranes; format: binding
T3 construct: gene CNR2

human CB2 (AtT20-CB2) [3] = target: T1, human CB2 (AtT20-CB2); experiment: FLIPR membrane potential assay, AtT20 cells; format: cell-based
Description: FLIPR membrane potential assay, AtT20 cells on human CB2 (AtT20-CB2)

human CB1 (AtT20-CB1) = target: T4, human CB1 (AtT20-CB1) (Homo sapiens, UniProt P21554); experiment: cell-based; conditions: read-out: % activation
T4 construct: gene CNR1; full-length, stably transfected in mouse AtT20 cells
Protocol: as §1

HA-hCB2 [4] = target: T3, HA-hCB2; experiment: biochemical; design: species or system HEK 293; conditions: read-out: hCB2 pKi (converted)

T3 sequence (P34972 whole entry): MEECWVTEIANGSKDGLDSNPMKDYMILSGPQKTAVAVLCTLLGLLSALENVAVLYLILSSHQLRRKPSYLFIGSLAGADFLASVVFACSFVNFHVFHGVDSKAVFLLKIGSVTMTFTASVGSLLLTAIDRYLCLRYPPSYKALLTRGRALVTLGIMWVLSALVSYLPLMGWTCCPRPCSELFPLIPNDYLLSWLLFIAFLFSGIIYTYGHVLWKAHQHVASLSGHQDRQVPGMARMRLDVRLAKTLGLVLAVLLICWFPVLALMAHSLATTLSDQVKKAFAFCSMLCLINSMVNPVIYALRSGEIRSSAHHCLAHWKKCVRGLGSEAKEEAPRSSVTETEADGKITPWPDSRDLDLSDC
T1 sequence (P34972 whole entry): as above
T4 sequence (P21554 whole entry): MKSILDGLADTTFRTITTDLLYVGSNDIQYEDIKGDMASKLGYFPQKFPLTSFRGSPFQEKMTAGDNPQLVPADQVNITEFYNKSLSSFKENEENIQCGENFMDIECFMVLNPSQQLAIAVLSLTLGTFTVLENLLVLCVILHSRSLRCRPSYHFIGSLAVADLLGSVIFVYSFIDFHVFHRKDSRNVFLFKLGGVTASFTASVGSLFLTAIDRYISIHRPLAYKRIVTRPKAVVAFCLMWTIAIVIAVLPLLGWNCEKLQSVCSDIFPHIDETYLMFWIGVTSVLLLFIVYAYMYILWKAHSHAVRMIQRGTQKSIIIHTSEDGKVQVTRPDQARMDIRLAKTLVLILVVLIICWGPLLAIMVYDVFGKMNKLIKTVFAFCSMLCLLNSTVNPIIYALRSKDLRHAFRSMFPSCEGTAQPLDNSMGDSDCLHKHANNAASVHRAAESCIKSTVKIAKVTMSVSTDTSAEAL
T2 sequence (P21554 whole entry): as above

| Structure (SMILES) | Emax (human CB2 (AtT20-CB2) [1]) [%] | Ki (HA-hCB1; read-out: pKi (converted)) [µM] | Ki (HA-hCB2 [2]; read-out: Ki) [µM] | EC50 (human CB2 (AtT20-CB2) [3]; read-out: EC50) [µM] | EC50 (human CB2 (AtT20-CB2) [1]) [µM] | activity at 10 µM (human CB1 (AtT20-CB1)) [%] | Ki (HA-hCB1) [µM] | Ki (HA-hCB2 [2]) [µM] | EC50 (human CB2 (AtT20-CB2) [3]) [µM] | activity at 10 µM (human CB2 (AtT20-CB2) [1]; read-out: % activation) [%] | Ki (HA-hCB2 [4]) [µM] |
| --- | --- | --- | --- | --- | --- | --- | --- | --- | --- | --- | --- |
| O=C(c1cn(CCCCCF)c2ccccc12)N1CCCCC1 [compound 7, (1-(5-Fluoropentyl)-1H-indol-3-yl)(piperidin-1-yl)methanone] | 64 ± 3 | > 10 | 0.363 | 0.0363 | – | – | – | – | – | – | – |
| CCCCn1cc(C(=O)N2CCCC2)c2ccccc21 [compound 11, (1-Butyl-1H-indol-3-yl)(pyrrolidin-1-yl)methanone] | 63 ± 9 | > 10 | > 10 | – | 0.468 | 16 ± 9 | – | – | – | – | – |
| O=C(c1cn(CCCCCF)c2ccccc12)N1CCCC1 [compound 5, (1-(5-Fluoropentyl)-1H-indol-3-yl)(pyrrolidin-1-yl)methanone] | 50 ± 3 | – | – | – | – | – | > 10 | 1.74 | 0.338 | – | – |
| CN(C)C(=O)c1cn(CCCCCF)c2ccccc12 [compound 10, 1-(5-Fluoropentyl)-N,N-dimethyl-1H-indole-3-carboxamide] | – | > 10 | > 10 | – | – | 9 ± 4 | – | – | – | 11 ± 2 | – |
| CCN(CC)C(=O)c1cn(CCCCCF)c2ccccc12 [compound 9, 1-(5-Fluoropentyl)-N,N-diethyl-1H-indole-3-carboxamide] | 53 ± 4 | > 10 | 1.02 | 0.137 | – | 0 | – | – | – | – | – |
| O=C(c1cn(Cc2ccc(F)cc2)c2ccccc12)N1CCCC1 [compound 13, (1-(4-Fluorobenzyl)-1H-indol-3-yl)(pyrrolidin-1-yl)methanone] | 38 ± 13 | > 10 | – | – | 0.363 | 12 ± 2 | – | – | – | – | 3.55 |
| O=C(c1cn(CCCCCF)c2ccccc12)N1CCCCCC1 [compound 8, Azepan-1-yl(1-(5-fluoropentyl)-1H-indol-3-yl)methanone] | 72 ± 3 | > 10 | 0.102 | 0.029 | – | – | – | – | – | – | – |
| O=C(c1cn(CC2CCCCC2)c2ccccc12)N1CCCC1 [compound 14, (1-(Cyclohexylmethyl)-1H-indol-3-yl)(pyrrolidin-1-yl)methanone] | 38 ± 3 | > 10 | – | – | 0.135 | – | – | – | – | – | 1.07 |
| CCCCCn1cc(C(=O)N2CCCC2)c2ccccc21 [compound 12, (1-Pentyl-1H-indol-3-yl)(pyrrolidin-1-yl)methanone] | 54 ± 7 | > 10 | – | – | 0.234 | 1 ± 3 | – | – | – | – | 3.24 |
